Drawing on ChEMBL document CHEMBL3886397, “Agent for treatment of eye diseases” (2015), this text covers IC50 for two compounds.

SMILES strings stand for the structures.

The target of this assay is Transitional endoplasmic reticulum ATPase (Mus musculus, UniProt Q01853). In words: Inhibition Assay: Mouse VCP cDNA was added with a DNA sequence corresponding to histidine tag at the amino-terminal, subcloned into a baculovirus vector pVL1392 (BD Bioscience), and expressed in Sf-9 insect cells. The protein was purified with a nickel column (GE Healthcare). The concentration of the protein was adjusted to 0.25-0.5 ug/ml and the protein was stored in a solution containing 50 mM TrisCl pH 8.0, 5 mM EDTA, 10% glycerol, and 15 mM DTT. The ATPase activity was determined as follows. 500 ng of the purified VCP was mixed with 100 uM [gamma-32P]ATP (18.5 GBq/mmol) and the test substance in 20 uL of ATPase buffer (20 mM HEPES (pH7.4), 50 mM KCl, 5 mM MgCl2, 15 mM DTT), and incubated at 37° C. for 10 minutes.The enzyme reaction was stopped with addition of 200 uL of an ice-cold solution containing 7% TCA and 1 mM K2HPO4. 50ul of a solution containing 3.75% ammonium molybdate and 0.02M tungstate silicic/3 NH2SO4 was added, followed by 300 uL of […].
Chain of Transitional endoplasmic reticulum ATPase (Q01853 whole entry): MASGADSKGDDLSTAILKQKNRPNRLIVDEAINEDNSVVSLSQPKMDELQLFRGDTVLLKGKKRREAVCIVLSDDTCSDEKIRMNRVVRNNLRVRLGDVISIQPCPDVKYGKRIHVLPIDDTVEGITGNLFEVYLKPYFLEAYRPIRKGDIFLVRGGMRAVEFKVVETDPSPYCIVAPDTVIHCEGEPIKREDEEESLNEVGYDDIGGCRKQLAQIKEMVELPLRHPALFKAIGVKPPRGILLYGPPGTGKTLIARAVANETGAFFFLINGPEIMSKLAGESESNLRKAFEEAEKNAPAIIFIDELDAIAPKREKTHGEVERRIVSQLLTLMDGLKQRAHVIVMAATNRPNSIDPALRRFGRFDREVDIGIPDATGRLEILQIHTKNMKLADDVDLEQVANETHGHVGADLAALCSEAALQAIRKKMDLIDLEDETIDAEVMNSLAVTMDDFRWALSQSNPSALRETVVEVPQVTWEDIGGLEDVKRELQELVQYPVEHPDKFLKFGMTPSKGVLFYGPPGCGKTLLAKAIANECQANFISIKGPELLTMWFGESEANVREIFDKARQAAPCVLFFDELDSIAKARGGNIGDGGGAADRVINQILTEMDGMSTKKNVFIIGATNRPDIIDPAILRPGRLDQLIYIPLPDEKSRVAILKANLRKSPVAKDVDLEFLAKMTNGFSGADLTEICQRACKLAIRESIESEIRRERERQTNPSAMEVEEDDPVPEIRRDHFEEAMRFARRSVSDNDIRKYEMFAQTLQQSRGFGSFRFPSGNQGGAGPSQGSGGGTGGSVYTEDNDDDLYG

Compound `Nc1c(/N=N/c2ccc(-c3cc(C(F)(F)F)cc(C(F)(F)F)c3)nc2)cc(S(=O)(=O)O)c2ccccc12` registered a 50% inhibitory concentration (IC50) of 2750 nM.
In turn, `CC(=O)c1ccc(-c2ccc(/N=N/c3cc(S(=O)(=O)O)c4ccccc4c3N)cn2)cc1` showed a concentration for half-maximal inhibition (IC50) of 136 nM.

As usually defined, the IC50 is the concentration at which inhibition is half-maximal. A higher IC50 goes with a need for much substance.
